{"source": "patent US10485256B2", "about": "“Stevia sweetener with improved solubility with a cyclodextrin” (EPC Natural Products Co., Ltd., priority 2014, dated 2019)", "key": {"[1]": {"assay": "Stability test: period that the system remains in solution form, without precipitation", "assay_type": "physicochemical", "details": "25° C.; for stability (period the system remain a solution form, without precipitation): Concentration 1 weight %", "method": "Concentration of RA was weight (g) in 100 g of water.\nThe stability test was performed at ambient temperature (25° C.), and was in water.\nThe acidic aqueous conditions were formulated with citric acid and water, and the pH was 3.0.\nConcentration of RA+RD was weight (g) in 100 g of water.\nThe stability test was performed at ambient temperature (25° C.) and was in water.\nConcentration of RA+RB+RD was weight (g) in 100 g of water.\nConcentration of RB or RD was weight (g) in 100 g of water."}, "[2]": {"assay": "Dissolution property at room temperature", "assay_type": "physicochemical", "details": "concentration 1%; without a solublizer (no cyclodextrin); water"}, "[3]": {"details": "γ-cyclodextrin mole ratio 1, water"}}, "data": [{"compound": "C=C1C[C@@]23CC[C@H]4[C@@](C)(CCC[C@@]4(C)C(=O)O[C@@H]4O[C@H](CO)[C@@H](O)[C@H](O)[C@H]4O)[C@@H]2CC[C@]1(O[C@@H]1O[C@H](CO)[C@@H](O)[C@H](O[C@@H]2O[C@H](CO)[C@@H](O)[C@H](O)[C@H]2O)[C@H]1O[C@@H]1O[C@H](CO)[C@@H](O)[C@H](O)[C@H]1O)C3", "note": "[RA, Rebaudioside A]", "values": [{"measurement": "stability (period the system remains in solution form, without precipitation)", "setting": "[1]; acidic (citric acid, pH 3.0), RA 3.5 weight %, γ-cyclodextrin mole ratio 1", "value": 120, "unit": "h"}, {"measurement": "stability (period the system remains in solution form, without precipitation)", "setting": "[1]; neutral, RA 3 weight %, γ-cyclodextrin mole ratio 0.5, water", "value": 1, "unit": "h"}, {"measurement": "stability (period the system remains in solution form, without precipitation)", "setting": "[1]; neutral, RA 3 weight %, γ-cyclodextrin mole ratio 0.6, water", "value": 2, "unit": "h"}, {"measurement": "stability (period the system remains in solution form, without precipitation)", "setting": "[1]; neutral, RA 3 weight %, γ-cyclodextrin mole ratio 0.7, water", "value": 24, "unit": "h"}, {"measurement": "stability (period the system remains in solution form, without precipitation)", "setting": "[1]; neutral, RA 3 weight %, γ-cyclodextrin mole ratio 0.8, water", "value": 52, "unit": "h"}, {"measurement": "stability (period the system remains in solution form, without precipitation)", "setting": "[1]; neutral, RA 3 weight %, γ-cyclodextrin mole ratio 0.85, water", "value": 92, "unit": "h"}, {"measurement": "stability (period the system remains in solution form, without precipitation)", "setting": "[1]; neutral, RA 3.5 weight %, γ-cyclodextrin mole ratio 0, water", "value": 2, "unit": "h"}, {"measurement": "stability (period the system remains in solution form, without precipitation)", "setting": "[1]; neutral, RA 3.5 weight %, γ-cyclodextrin mole ratio 0.85, water", "value": 160, "unit": "h"}, {"measurement": "stability (period the system remains in solution form, without precipitation)", "setting": "[1]; neutral, RA 3.5 weight %, γ-cyclodextrin mole ratio 1, water", "value": 336, "unit": "h"}]}, {"compound": "C=C1C[C@@]23CC[C@H]4[C@@](C)(CCC[C@@]4(C)C(=O)O[C@@H]4O[C@H](CO)[C@@H](O)[C@H](O)[C@H]4O[C@@H]4O[C@H](CO)[C@@H](O)[C@H](O)[C@H]4O)[C@@H]2CC[C@]1(O[C@@H]1O[C@H](CO)[C@@H](O)[C@H](O[C@@H]2O[C@H](CO)[C@@H](O)[C@H](O)[C@H]2O)[C@H]1O[C@@H]1O[C@H](CO)[C@@H](O)[C@H](O)[C@H]1O)C3", "note": "[RD, Rebaudioside D]", "values": [{"measurement": "stability (period the system remain a solution form, without precipitation)", "setting": "[1]; [3]", "value": 48, "unit": "h"}, {"measurement": "formation of a solution", "setting": "[2]", "value": "did not form a solution"}]}, {"compound": "Rebaudioside B [RB]", "values": [{"measurement": "stability (period the system remain a solution form, without precipitation)", "setting": "[1]; [3]", "value": 0.333, "unit": "h"}, {"measurement": "formation of a solution", "setting": "[2]", "value": "did not form a solution"}]}]}
